Data published in the Kinase Knowledgebase extract (Sharma et al. 2016).

Target: MAPK14 (human) (UniProt Q16539)
Test: Inhibition of MAPK14 Kinase Activity

Sequence of MAPK14 (human) (Q16539 whole entry, looked up): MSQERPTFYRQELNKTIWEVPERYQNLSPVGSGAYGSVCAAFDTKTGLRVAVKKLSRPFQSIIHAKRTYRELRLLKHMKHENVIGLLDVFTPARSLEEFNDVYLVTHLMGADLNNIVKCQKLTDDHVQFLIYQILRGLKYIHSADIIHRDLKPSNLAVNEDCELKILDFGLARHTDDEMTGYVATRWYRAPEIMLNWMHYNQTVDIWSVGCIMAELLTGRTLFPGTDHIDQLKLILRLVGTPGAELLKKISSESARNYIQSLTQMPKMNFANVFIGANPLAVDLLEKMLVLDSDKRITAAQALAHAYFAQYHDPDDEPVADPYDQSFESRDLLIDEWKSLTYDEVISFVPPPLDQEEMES

| IC50 | Compound |
| --- | --- |
| ≤ 1000 nM | COc1cc(C=CC(=O)N2CCN(Cc3nc(-c4ccc(F)cc4)c(-c4nc(C(=O)NC(C)C)cs4)o3)CC2)ccc1O |
| ≤ 1000 nM | Cc1nc(-c2ccc(F)cc2)c(-c2nc(C(=O)NCCCO)cs2)s1 |
| ≤ 1000 nM | CC(C)NC(=O)c1csc(-c2oc(CN3CCN(C(=O)C=Cc4ccccc4O)CC3)nc2-c2ccc(F)cc2)n1 |
| ≤ 1000 nM | Cc1nc(-c2ccc(F)cc2)c(-c2nc(C(=O)NC3CCCCCC3)cs2)s1 |
| ≤ 1000 nM | CC(C)NC(=O)c1csc(-c2oc(CNC(=O)C(C)c3ccc(O)cc3)nc2-c2ccc(F)cc2)n1 (centres undefined) |
| ≤ 1000 nM | Cc1onc(-c2ccc(F)cc2)c1-c1nc(C(=O)NC(C)C)cs1 |
| ≤ 1000 nM | O=C(NCc1cccnc1)c1csc(-c2c(-c3ccc(F)cc3)n[nH]c2C2CCN(C(=O)CO)CC2)n1 |
| ≤ 1000 nM | N#CCNC(=O)c1csc(-c2c(-c3ccc(F)cc3)n[nH]c2C2CCNCC2)n1 |
| ≤ 1000 nM | COCCNC(=O)c1csc(-c2c(-c3ccc(F)cc3)n[nH]c2C2CCNCC2)n1 |
| ≤ 1000 nM | CC(C)NC(=O)c1csc(-c2oc(CNCc3ccccn3)nc2-c2ccc(F)cc2)n1 |
| ≤ 1000 nM | Cc1nc(-c2ccc(F)cc2)c(-c2nc(C(=O)NC(C)C)cs2)s1 |
| ≤ 1000 nM | CCOC(=O)CC(=O)NCc1nc(-c2ccc(F)cc2)c(-c2nc(C(=O)NC(C)C)cs2)o1 |
| ≤ 1000 nM | O=C(NCc1ccccc1F)c1csc(-c2c(-c3ccc(F)cc3)n[nH]c2C2CCNCC2)n1 |
| ≤ 1000 nM | Cc1nc(-c2ccc(F)cc2)c(-c2nc(C(=O)NCc3ccc(C(F)(F)F)cc3)cs2)s1 |
| ≤ 1000 nM | COCCOCC(=O)N1CCC(c2[nH]nc(-c3ccc(F)cc3)c2-c2nc(C(=O)NC(C)C)cs2)CC1 |
| ≤ 1000 nM | CC(C)NC(=O)c1csc(-c2oc(CNC(=O)c3cccnc3)nc2-c2ccc(F)cc2)n1 |
| ≤ 1000 nM | O=C(NC1CCC1)c1csc(-c2c(-c3ccc(F)cc3)n[nH]c2C2CCNCC2)n1 |
| ≤ 1000 nM | CC(C)NC(=O)c1csc(-c2oc(CNC(=O)c3ccc4cccc(O)c4n3)nc2-c2ccc(F)cc2)n1 |
| ≤ 1000 nM | CC(C)NC(=O)c1csc(-c2oc(CNC(=O)C3CCCO3)nc2-c2ccc(F)cc2)n1 (centres undefined) |
| ≤ 1000 nM | COc1ccc(CNCc2nc(-c3ccc(F)cc3)c(-c3nc(C(=O)NC(C)C)cs3)o2)cc1O |
| ≤ 1000 nM | CCC(C)NC(=O)c1csc(-c2c(-c3ccc(F)cc3)n[nH]c2C2CCNCC2)n1 (centres undefined) |
| ≤ 1000 nM | CC(C)NC(=O)c1csc(-c2oc(CN3CCN(C(=O)c4cscn4)CC3)nc2-c2ccc(F)cc2)n1 |
| ≤ 1000 nM | COc1ccc(C=CC(=O)N2CCN(Cc3nc(-c4ccc(F)cc4)c(-c4nc(C(=O)NC(C)C)cs4)o3)CC2)cc1O |
| ≤ 1000 nM | CCOc1ccc2ccccc2c1C(=O)N1CCN(Cc2nc(-c3ccc(F)cc3)c(-c3nc(C(=O)NC(C)C)cs3)o2)CC1 |
| ≤ 1000 nM | CC(C)CC(NC(=O)OC(C)(C)C)C(=O)N1CCC(c2[nH]nc(-c3ccc(F)cc3)c2-c2nc(C(=O)NC(C)C)cs2)CC1 (centres undefined) |

| IC50 | Compound |
| --- | --- |
| ≤ 1000 nM | CC(C)NC(=O)c1csc(-c2oc(CNC(=O)C=Cc3ccccc3)nc2-c2ccc(F)cc2)n1 |
| ≤ 1000 nM | CC(C)NC(=O)c1csc(-c2oc(CN3CCN(C(=O)c4cn(C)cn4)CC3)nc2-c2ccc(F)cc2)n1 |
| ≤ 1000 nM | Cc1nc(-c2ccc(F)cc2)c(-c2nc(C(=O)NC3CCCCC3C)cs2)s1 (centres undefined) |
| ≤ 1000 nM | Cc1ccc(F)cc1C(=O)NCc1nc(-c2ccc(F)cc2)c(-c2nc(C(=O)NC(C)C)cs2)o1 |
| ≤ 1000 nM | CC(C)NC(=O)c1csc(-c2c(-c3ccc(F)cc3)noc2CNC(=O)C=Cc2ccccc2F)n1 |
| ≤ 1000 nM | O=C(NC1CCCC1)c1csc(-c2c(-c3ccc(F)cc3)ncn2C2CCNCC2)n1 |
| ≤ 1000 nM | Cc1nc(-c2ccc(F)cc2)c(-c2nc(C(=O)NCc3cc(F)cc(F)c3)cs2)s1 |
| ≤ 1000 nM | Cc1nc(-c2ccc(F)cc2)c(-c2nc(C(=O)NCc3cccc(Cl)c3)cs2)s1 |
| ≤ 1000 nM | Cc1nc(-c2ccc(F)cc2)c(-c2nc(C(=O)NCCCCO)cs2)s1 |
| ≤ 1000 nM | CC(C)NC(=O)c1csc(-c2oc(CN3CCN(C(=O)c4ccncc4)CC3)nc2-c2ccc(F)cc2)n1 |
| ≤ 1000 nM | CNC(=O)c1csc(-c2sc(C)nc2-c2ccc(F)cc2)n1 |
| ≤ 1000 nM | CC(C)NC(=O)c1csc(-c2oc(CN3CCN(C(=O)c4cccc5ccccc45)CC3)nc2-c2ccc(F)cc2)n1 |
| ≤ 1000 nM | CC(C)NC(=O)c1csc(-c2oc(CBr)nc2-c2ccc(F)cc2)n1 |
| ≤ 1000 nM | Cc1ccccc1C(=O)N1CCC(c2[nH]nc(-c3ccc(F)cc3)c2-c2nc(C(=O)NC(C)C)cs2)CC1 |
| ≤ 1000 nM | Cc1nc(-c2ccc(F)cc2)c(-c2nc(C(=O)NCCCN3CCCC3=O)cs2)s1 |
| ≤ 1000 nM | COc1ccc(CNC(=O)c2csc(-c3c(-c4ccc(F)cc4)n[nH]c3C3CCNCC3)n2)cc1O |
| ≤ 1000 nM | CC(C)NC(=O)c1csc(-c2oc(CN3CCN(C(=O)c4ccccc4O)CC3)nc2-c2ccc(F)cc2)n1 |
| ≤ 1000 nM | CC(C)NC(=O)c1csc(-c2oc(CNC(=O)c3ccc(-c4ccc(O)cc4)cc3)nc2-c2ccc(F)cc2)n1 |
| ≤ 1000 nM | Cc1nc(-c2ccc(F)cc2)c(-c2nc(C(=O)NCCCn3ccnc3)cs2)s1 |
| ≤ 1000 nM | Cc1cc(C(=O)NCc2nc(-c3ccc(F)cc3)c(-c3nc(C(=O)NC(C)C)cs3)o2)n[nH]1 |
| ≤ 1000 nM | COCC(C)NC(=O)c1csc(-c2sc(C)nc2-c2ccc(F)cc2)n1 (centres undefined) |
| ≤ 1000 nM | COc1cccc(CCNC(=O)c2csc(-c3sc(C)nc3-c3ccc(F)cc3)n2)c1 |
| ≤ 1000 nM | CC(C)NC(=O)c1csc(-c2oc(CNC(=O)c3ccc(OCc4ccccc4)cc3)nc2-c2ccc(F)cc2)n1 |
| ≤ 1000 nM | CC(C)NC(=O)c1csc(-c2oc(CN3CCN(C(=O)c4ccccc4-c4ccccc4)CC3)nc2-c2ccc(F)cc2)n1 |

Second part, the molecule before the results:

| Compound | IC50 |
| --- | --- |
| CC(C)NC(=O)c1csc(-c2c(-c3ccc(F)cc3)n[nH]c2C2CCNCC2)n1 | ≤ 1000 nM |
| Cc1nc(-c2ccc(F)cc2)c(-c2nc(C(=O)NCc3ccc(F)c(Cl)c3)cs2)s1 | ≤ 1000 nM |
| CC(C)NC(=O)c1csc(-c2c(-c3ccc(F)cc3)noc2CNC(=O)c2ccncc2Cl)n1 | ≤ 1000 nM |
| CC(C)NC(=O)c1csc(-c2oc(CNC(=O)c3cc(F)c(F)cc3Cl)nc2-c2ccc(F)cc2)n1 | ≤ 1000 nM |
| CC(C)NC(=O)c1csc(-c2oc(CNCc3ccccc3OC(F)(F)F)nc2-c2ccc(F)cc2)n1 | ≤ 1000 nM |
| CC(C)NC(=O)c1csc(-c2oc(CNC(=O)CC#N)nc2-c2ccc(F)cc2)n1 | ≤ 1000 nM |
| CC(C)NC(=O)c1csc(-c2c(-c3ccc(F)cc3)noc2CN(C)C)n1 | ≤ 1000 nM |
| Cc1onc(-c2ccc(F)cc2F)c1-c1ccn(C(=O)NC(C)C)n1 | ≤ 1000 nM |
| Cc1cccc(C(=O)N2CCN(Cc3nc(-c4ccc(F)cc4)c(-c4nc(C(=O)NC(C)C)cs4)o3)CC2)c1O | ≤ 1000 nM |
| CC(=O)N1CCC(c2onc(-c3ccc(F)cc3)c2-c2nc(C(=O)NC(C)C)cs2)CC1 | ≤ 1000 nM |
| CC(C)NC(=O)c1csc(-c2c(-c3ccc(F)cc3)n[nH]c2C2CCN(C(=O)C(O)CCl)CC2)n1 (centres undefined) | ≤ 1000 nM |
| CC(C)NC(=O)c1csc(-c2oc(CNC(=O)c3cc(O)ccc3[N+](=O)[O-])nc2-c2ccc(F)cc2)n1 | ≤ 1000 nM |
| CC(C)NC(=O)c1csc(-c2oc(CN3CCN(C(=O)CC4Cc5ccccc5C4)CC3)nc2-c2ccc(F)cc2)n1 | ≤ 1000 nM |
| CC(C)NC(=O)c1csc(-c2c(-c3ccc(F)cc3)n[nH]c2C2CCN(C(=O)CC#N)CC2)n1 | ≤ 1000 nM |
| Cc1ccc(S(=O)(=O)NCCNC(=O)c2csc(-c3sc(C)nc3-c3ccc(F)cc3)n2)cc1 | ≤ 1000 nM |
| Cc1nc(-c2ccc(F)cc2)c(-c2nc(C(=O)NC(C)CO)cs2)s1 (centres undefined) | ≤ 1000 nM |
| C#CCNC(=O)c1csc(-c2c(-c3ccc(F)cc3)ncn2C2CCN(C(=O)CO)CC2)n1 | ≤ 1000 nM |
| CC(C)NC(=O)c1csc(-c2oc(CN3CCN(C(=O)c4ccccc4Cc4ccccc4)CC3)nc2-c2ccc(F)cc2)n1 | ≤ 1000 nM |
| Cc1nc(-c2ccc(F)cc2)c(-c2nc(C(=O)NCc3ccncc3)cs2)s1 | ≤ 1000 nM |
| Cc1nc(-c2ccc(F)cc2)c(-c2nc(C(=O)NCc3ccc(Cl)c(Cl)c3)cs2)s1 | ≤ 1000 nM |

| Compound | IC50 |
| --- | --- |
| CC(C)NC(=O)c1csc(-c2oc(CNCCc3ccc(S(N)(=O)=O)cc3)nc2-c2ccc(F)cc2)n1 | ≤ 1000 nM |
| CC(C)NC(=O)c1csc(-c2oc(CNC(=O)Cc3cccc4ccccc34)nc2-c2ccc(F)cc2)n1 | ≤ 1000 nM |
| Cc1nc(-c2ccc(F)cc2)c(-c2nc(C(=O)NCC3CCCO3)cs2)s1 (centres undefined) | ≤ 1000 nM |
| CC(=O)C(=O)N1CCC(c2[nH]nc(-c3ccc(F)cc3)c2-c2nc(C(=O)NC(C)C)cs2)CC1 | ≤ 1000 nM |
| CC(C)NC(=O)c1csc(-c2oc(CNC(=O)c3ccc(Cl)cc3[N+](=O)[O-])nc2-c2ccc(F)cc2)n1 | ≤ 1000 nM |
| CC(C)NC(=O)c1csc(-c2oc(CN3CCN(C(=O)c4ccc(-c5ccc(O)cc5)cc4)CC3)nc2-c2ccc(F)cc2)n1 | ≤ 1000 nM |
| Cc1nc(-c2ccc(F)cc2)c(-c2nc(C(=O)NC3CCC3)cs2)s1 | ≤ 1000 nM |
| Cc1c(C(=O)N2CCC(c3[nH]nc(-c4ccc(F)cc4)c3-c3nc(C(=O)NC(C)C)cs3)CC2)oc2ccccc12 | ≤ 1000 nM |
| Cc1nc(-c2ccc(F)cc2)c(-c2nc(C(=O)N[C@H](C)c3ccccc3)cs2)s1 | ≤ 1000 nM |
| CC(C)NC(=O)c1csc(-c2oc(CNC(=O)c3c4ccccc4cc4ccccc34)nc2-c2ccc(F)cc2)n1 | ≤ 1000 nM |
| CC(C)NC(=O)c1csc(-c2c(-c3ccc(F)cc3)n[nH]c2C2CCN(C(=O)CCc3nc4ccccc4[nH]3)CC2)n1 | ≤ 1000 nM |
| CCCCCCCC(=O)NCc1nc(-c2ccc(F)cc2)c(-c2nc(C(=O)NC(C)C)cs2)o1 | ≤ 1000 nM |
| CC(C)NC(=O)c1csc(-c2oc(CN3CCN(C(=O)c4ccc(Cl)cc4O)CC3)nc2-c2ccc(F)cc2)n1 | ≤ 1000 nM |
| CC(C)NC(=O)c1csc(-c2oc(CN3CCN(C(=O)c4cc(Cl)ccc4O)CC3)nc2-c2ccc(F)cc2)n1 | ≤ 1000 nM |
| CC(C)NC(=O)c1csc(-c2c(-c3ccc(F)cc3)n[nH]c2C2CCN(C(=O)c3cccnc3Cl)CC2)n1 | ≤ 1000 nM |
| C#CCNC(=O)c1csc(-c2[nH]c(CN3CCNCC3)nc2-c2ccc(F)cc2)n1 | ≤ 1000 nM |
| CC(C)NC(=O)c1csc(-c2c(-c3ccc(F)cc3)n[nH]c2C2CCN(C(=O)c3ccnc(Cl)c3)CC2)n1 | ≤ 1000 nM |
| CNC(=O)c1csc(-c2c(-c3ccc(F)cc3)n[nH]c2C2CCNCC2)n1 | ≤ 1000 nM |
| O=C(NCc1cccnc1)c1csc(-c2c(-c3ccc(F)cc3)n[nH]c2C2CCNCC2)n1 | ≤ 1000 nM |
| Cc1ccc(C(=O)N2CCN(Cc3nc(-c4ccc(F)cc4)c(-c4nc(C(=O)NC(C)C)cs4)o3)CC2)c(C)c1 | ≤ 1000 nM |
